Patent US12552752B2, “Atropisomers of pyridazinone derivatives as herbicides” (FMC Corporation, priority 2020, dated 2026)

Columns and labels:
Format in all cases: in vivo
[1] = system: foxtail, giant (FTI, Setaria faberii); experiment: Test A postemergence, giant foxtail; settings: POST, 0 to 100 scale, approximately 10 d
Excerpt: (§1) Seeds of plant species selected from barnyardgrass (BYG, Echinochloa crus-galli), kochia (KOC, Kochia scoparia), ragweed (common ragweed, Ambrosia elatior), ryegrass, Italian (RGI, Lolium multiflorum), foxtail, giant (FTI, Setaria faberii), foxtail, green (Setaria viridis) and pigweed (PWR, Amaranthus retroflexus) were planted into a blend of loam soil and sand and treated preemergence with a directed soil spray using test chemicals formulated in a non-phytotoxic solvent mixture which included a surfactant. At the same time, plants selected from these weed species and also wheat (WWT, Triticum aestivum), corn (CPI, Zea mays), blackgrass (BKG, Alopecurus myosuroides) and galium (GAL, catchweed bedstraw, Galium aparine) were planted in pots containing the same blend of loam soil and sand and treated with postemergence applications of test chemicals formulated in the same manner Plants ranged in height from 2 to 10 cm and were in the one- to two-leaf stage for the postemergence treatment. Treated plants and untreated controls were maintained in a greenhouse for approximately 10 d, after which time all treated plants were compared to untreated controls and visually evaluated for injury. Plant response ratings, summarized in Tables 1-4, are based on a 0 to 100 scale where 0 is no effect and 100 is complete control. A dash (−) response means no test result. The ratings are followed by a letter representing the symptomology where S is Albinism, C is Chlorosis, G is Growth Inhibition and E is Emergence.

[2] = system: barnyardgrass (BYG, Echinochloa crus-galli); experiment: Test A preemergence, barnyardgrass; settings: PRE, 0 to 100 scale, approximately 10 d
Excerpt: as §1

[3] = system: galium (GAL, catchweed bedstraw, Galium aparine); experiment: Test A postemergence, galium; settings: POST, 0 to 100 scale, approximately 10 d
Excerpt: as §1

[4] = system: pigweed (PWR, Amaranthus retroflexus); experiment: Test A postemergence, pigweed; settings: POST, 0 to 100 scale, approximately 10 d
Excerpt: as §1

[5] = system: wheat (WWT, Triticum aestivum); experiment: Test A postemergence, wheat; settings: POST, 0 to 100 scale, approximately 10 d
Excerpt: as §1

[6] = system: ragweed (common ragweed, Ambrosia elatior); experiment: Test A postemergence, ragweed; settings: POST, 0 to 100 scale, approximately 10 d
Excerpt: as §1

[7] = system: ryegrass, Italian (RGI, Lolium multiflorum); experiment: Test A preemergence, Italian ryegrass; settings: PRE, 0 to 100 scale, approximately 10 d
Excerpt: as §1

[8] = system: kochia (KOC, Kochia scoparia); experiment: Test A postemergence, kochia; settings: POST, 0 to 100 scale, approximately 10 d
Excerpt: as §1

[9] = system: corn (CPI, Zea mays); experiment: Test A postemergence, corn; settings: POST, 0 to 100 scale, approximately 10 d
Excerpt: as §1

[10] = system: blackgrass (BKG, Alopecurus myosuroides); experiment: Test A postemergence, blackgrass; settings: POST, 0 to 100 scale, approximately 10 d
Excerpt: as §1

[11] = system: ryegrass, Italian (RGI, Lolium multiflorum); experiment: Test A postemergence, Italian ryegrass; settings: POST, 0 to 100 scale, approximately 10 d
Excerpt: as §1

[12] = system: foxtail, giant (FTI, Setaria faberii); experiment: Test A preemergence, giant foxtail; settings: PRE, 0 to 100 scale, approximately 10 d
Excerpt: as §1

[13] = system: barnyardgrass (BYG, Echinochloa crus-galli); experiment: Test A postemergence, barnyardgrass; settings: POST, 0 to 100 scale, approximately 10 d
Excerpt: as §1

[14] = system: pigweed (PWR, Amaranthus retroflexus); experiment: Test A preemergence, pigweed; settings: PRE, 0 to 100 scale, approximately 10 d
Excerpt: as §1

[15] = system: kochia (KOC, Kochia scoparia); experiment: Test A preemergence, kochia; settings: PRE, 0 to 100 scale, approximately 10 d
Excerpt: as §1

[16] = 31 g ai/ha, listed as drawing 27
[17] = 125 g ai/ha, listed as drawing 27
[18] = 31 g ai/ha, listed as drawing 25
[19] = 125 g ai/ha, listed as drawing 25
[20] = 125 g ai/ha, listed as drawing 28
[21] = 31 g ai/ha, listed as drawing 28
[22] = 31 g ai/ha, listed as drawing 29
[23] = 125 g ai/ha, listed as drawing 29
[24] = 31 g ai/ha, listed as drawing 26
[25] = 125 g ai/ha, listed as drawing 26

Structure (SMILES): Cc1ccc2ccccc2c1-c1c(O)c(Cl)nn(C)c1=O (racemic) [3 (Enantiomer 3A)]
- Plant response rating FTI [1, 16]: 20 S
- Plant response rating BYG [2, 17]: 50 S
- Plant response rating GAL [3, 17]: 100 C
- Plant response rating PWR ([4]; 125 g ai/ha): 100 C
- Plant response rating WWT ([5]; 31 g ai/ha): 0
- Plant response rating RWC [6, 17]: 100 C
- Plant response rating RGI [7, 16]: 10 S
- Plant response rating KOC ([8]; 125 g ai/ha): 90 S

Structure (SMILES): Cc1ccc2ccc(C)c(-c3c(O)c(Cl)nn(C)c3=O)c2c1 (single isomer, unassigned) [2 (Enantiomer 2A)]
- Plant response rating FTI [1, 18]: 30 S
- Plant response rating FTI [1, 19]: 60 S
- Plant response rating BYG [2, 18]: 0
- Plant response rating BYG [2, 19]: 50 G
- Plant response rating CPI [9, 18]: 10 G
- Plant response rating CPI ([9]; 125 g ai/ha): 30 G
- Plant response rating GAL [3, 18]: 100 C 100 C
- Plant response rating GAL [3, 19]: 100 C 100 C
- Plant response rating BKG [10, 18]: 0
- Plant response rating BKG [10, 19]: 20 S
- Plant response rating PWR ([4]; 31 g ai/ha): 100 C 100 C 100 C 100 C
- Plant response rating PWR ([4]; 125 g ai/ha): 100 C 100 C 100 C 100 C
- Plant response rating RGI [11, 18]: 30 S
- Plant response rating RGI [11, 19]: 40 S
- Plant response rating WWT [5, 18]: 0
- Plant response rating WWT [5, 19]: 0
- Plant response rating FTI [12, 18]: 20 S
- Plant response rating FTI [12, 19]: 40 S
- Plant response rating RWC [6, 18]: 90 S 90 S
- Plant response rating RWC [6, 19]: 90 S 90 S
- Plant response rating RGI [7, 18]: 20 G
- Plant response rating RGI [7, 19]: 20 G
- Plant response rating KOC ([8]; 31 g ai/ha): 60 S
- Plant response rating KOC [8, 19]: 80 S
- Plant response rating BYG [13, 18]: 20 C
- Plant response rating BYG [13, 19]: 30 C
- Plant response rating PWR ([14]; 31 g ai/ha): 100 C 100 C 100 C 100 C
- Plant response rating PWR ([14]; 125 g ai/ha): 100 C 100 C 100 C 100 C
- Plant response rating KOC [15, 18]: 10 C
- Plant response rating KOC [15, 19]: 80 S

Structure (SMILES): Cc1ccc2ccccc2c1-c1c(O)c(Cl)nn(C)c1=O (racemic) [3 (Enantiomer 3B)]
- Plant response rating FTI [1, 20]: 90 S
- Plant response rating FTI ([1]; 1000 g ai/ha): 100 S
- Plant response rating BYG [2, 21]: 80 S
- Plant response rating BYG ([2]; 1000 g ai/ha): 100 C
- Plant response rating CPI ([9]; 1000 g ai/ha): 50 S
- Plant response rating GAL [3, 21]: 100 C 100 C 100 C 100 C 100 C
- Plant response rating GAL [3, 20]: 100 C 100 C 100 C 100 C 100 C
- Plant response rating GAL ([3]; 1000 g ai/ha): 100 C 100 C 100 C 100 C 100 C
- Plant response rating BKG [10, 21]: 0
- Plant response rating BKG ([10]; 1000 g ai/ha): 80 S
- Plant response rating PWR [4, 21]: 100 C
- Plant response rating PWR ([4]; 1000 g ai/ha): 100 C
- Plant response rating RGI [11, 20]: 100 S
- Plant response rating RGI ([11]; 1000 g ai/ha): 100 S
- Plant response rating WWT [5, 20]: 30 S
- Plant response rating WWT ([5]; 1000 g ai/ha): 90 S
- Plant response rating FTI [12, 20]: 100 C
- Plant response rating FTI ([12]; 1000 g ai/ha): 100 C
- Plant response rating RWC [6, 21]: 100 C
- Plant response rating RWC ([6]; 1000 g ai/ha): 90 S
- Plant response rating RGI ([7]; 1000 g ai/ha): 100 S
- Plant response rating KOC ([8]; 1000 g ai/ha): 100 C
- Plant response rating BYG ([13]; 1000 g ai/ha): 90 S
- Plant response rating PWR [14, 21]: 90 C
- Plant response rating PWR ([14]; 1000 g ai/ha): 100 C
- Plant response rating KOC [15, 21]: 10 S
- Plant response rating KOC ([15]; 1000 g ai/ha): 100 C

Structure (SMILES): CCC(=O)Oc1c(Cl)nn(C)c(=O)c1-c1c(C)ccc2ccc(C)cc12 (racemic) [4 (Enantiomer 4A)]
- Plant response rating FTI [1, 22]: 0
- Plant response rating FTI [1, 23]: 30 S
- Plant response rating BYG [2, 22]: 0
- Plant response rating BYG [2, 23]: 0
- Plant response rating CPI [9, 22]: 0
- Plant response rating CPI [9, 23]: 0
- Plant response rating GAL [3, 22]: 80 S
- Plant response rating GAL [3, 23]: 100 C
- Plant response rating BKG [10, 22]: 10 C 10 C
- Plant response rating BKG [10, 23]: 10 C 10 C
- Plant response rating PWR [4, 22]: 90 S
- Plant response rating PWR [4, 23]: 100 C
- Plant response rating RGI [11, 22]: 10 C
- Plant response rating RGI [11, 23]: 20 C
- Plant response rating WWT [5, 22]: 0
- Plant response rating WWT [5, 23]: 0
- Plant response rating FTI [12, 22]: 0
- Plant response rating FTI [12, 23]: 10 S
- Plant response rating RWC [6, 22]: 80 S
- Plant response rating RWC [6, 23]: 90 S
- Plant response rating RGI [7, 22]: 0
- Plant response rating RGI [7, 23]: 10 C
- Plant response rating KOC ([8]; 31 g ai/ha): 50 S
- Plant response rating KOC [8, 23]: 60 S
- Plant response rating BYG [13, 22]: 0
- Plant response rating BYG [13, 23]: 30 C
- Plant response rating PWR [14, 22]: 90 C
- Plant response rating PWR [14, 23]: 90 C
- Plant response rating KOC ([15]; 31 g ai/ha): 10 C
- Plant response rating KOC [15, 23]: 50 S

Structure (SMILES): Cc1ccc2ccc(C)c(-c3c(O)c(Cl)nn(C)c3=O)c2c1 (single isomer, unassigned) [2 (Enantiomer 2B)]
- Plant response rating FTI [1, 24]: 80 S
- Plant response rating FTI [1, 25]: 90 S
- Plant response rating BYG [2, 24]: 90 S
- Plant response rating BYG [2, 25]: 100 C
- Plant response rating CPI [9, 24]: 0
- Plant response rating CPI ([9]; 125 g ai/ha): 30 G
- Plant response rating GAL [3, 24]: 100 C
- Plant response rating GAL [3, 25]: 90 C
- Plant response rating BKG [10, 24]: 30 C
- Plant response rating BKG [10, 25]: 40 S
- Plant response rating PWR ([4]; 125 g ai/ha): 100 C 100 C 100 C 100 C
- Plant response rating RGI [11, 24]: 100 C
- Plant response rating RGI [11, 25]: 100 C
- Plant response rating WWT [5, 24]: 0
- Plant response rating WWT [5, 25]: 30 S
- Plant response rating FTI [12, 24]: 100 C
- Plant response rating FTI [12, 25]: 100 C
- Plant response rating RWC [6, 24]: 100 C 100 C
- Plant response rating RWC [6, 25]: 100 C 100 C
- Plant response rating RGI [7, 24]: 80 S
- Plant response rating RGI [7, 25]: 100 S
- Plant response rating KOC ([8]; 31 g ai/ha): 60 S
- Plant response rating KOC [8, 25]: 70 S
- Plant response rating BYG [13, 24]: 80 C
- Plant response rating BYG [13, 25]: 90 C
- Plant response rating KOC [15, 24]: 0
- Plant response rating KOC [15, 25]: 90 C
